Assay [1] deals with T1, Lethal factor (Bacillus anthracis) (UniProt P15917).
T1 sequence (whole entry): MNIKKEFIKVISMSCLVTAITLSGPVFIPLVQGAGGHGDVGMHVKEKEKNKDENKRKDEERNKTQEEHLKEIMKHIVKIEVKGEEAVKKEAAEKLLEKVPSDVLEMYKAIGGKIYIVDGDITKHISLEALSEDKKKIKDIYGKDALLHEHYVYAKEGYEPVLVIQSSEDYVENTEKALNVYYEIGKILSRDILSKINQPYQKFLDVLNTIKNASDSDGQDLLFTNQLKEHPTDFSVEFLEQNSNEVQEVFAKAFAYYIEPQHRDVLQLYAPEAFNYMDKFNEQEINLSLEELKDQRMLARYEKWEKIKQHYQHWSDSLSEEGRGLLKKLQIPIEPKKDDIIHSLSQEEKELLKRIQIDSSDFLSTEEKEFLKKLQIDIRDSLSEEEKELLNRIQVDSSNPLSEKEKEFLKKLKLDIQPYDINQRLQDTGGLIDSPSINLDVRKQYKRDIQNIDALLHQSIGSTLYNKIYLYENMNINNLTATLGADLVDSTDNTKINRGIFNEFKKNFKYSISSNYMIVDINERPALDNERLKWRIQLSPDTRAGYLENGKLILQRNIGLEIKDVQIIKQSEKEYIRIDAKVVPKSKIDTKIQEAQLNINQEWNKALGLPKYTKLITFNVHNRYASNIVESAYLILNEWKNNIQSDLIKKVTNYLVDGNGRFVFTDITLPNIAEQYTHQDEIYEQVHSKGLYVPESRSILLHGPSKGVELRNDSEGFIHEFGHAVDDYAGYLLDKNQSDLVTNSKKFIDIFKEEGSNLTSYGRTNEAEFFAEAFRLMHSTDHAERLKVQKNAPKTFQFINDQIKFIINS
Briefly: (§1) Inhibition of anthrax lethal factor upto 100 uM by FRET assay.

For assay [2], the target named is T1, Lethal factor (Bacillus anthracis). Described as §1. The source holds these as a separate data set.
The target in assay [3] is T2, Lethal factor (Bacillus anthracis, UniProt P15917).
T2 sequence (P15917 whole entry): T1 sequence (whole entry)
Nature of the assay: Inhibition of anthrax lethal factor by FRET assay.

Assay [4] has as its system J774.A1. Nature of the assay: Inhibition of anthrax lethal factor induced J774A.1 cell death by MTT assay. Format: functional, cell-based. The following applies: Mus musculus.
Assay [5] has as its system J774.A1. Nature of the assay: Cytotoxicity against J774A.1 cells assessed as cell viability upto 30 uM after 4 hrs by MTT assay. Format: functional, cell-based. To be noted: Mus musculus.
The test system of assay [6] is J774.A1. Briefly: Inhibition of anthrax lethal factor induced J774A.1 cell death at 85 uM by MTT assay. Format: functional, cell-based. To be noted: Mus musculus.
The subject of assay [7] is J774.A1. Nature of the assay: Cytotoxicity against J774A.1 cells assessed as cell viability at 30 uM after 4 hrs by MTT assay. Format: functional, cell-based. To be noted: Mus musculus.
Assay [8] deals with J774.A1. Briefly: Inhibition of anthrax lethal factor induced J774A.1 cell death at 20 uM by MTT assay. Format: functional, Mus musculus. More on the design: scale not given: the % may be the effect or the level left.

Calls of active or inactive are those of the source. No cut-off for these calls is given here.

Consider `CCCCCCCC/C=C\CCCCCCCC(=O)NCCc1ccc(O)cc1`, for which the outcome in assay [1] and in assay [2] was inactive.
In assay [3], `CCCCCCCC/C=C\CCCCCCCC(=O)NCCc1ccc(C(=O)NO)cc1` returned a half-maximal inhibitory concentration (IC50) of 32 µM and a Ki of 6 µM.
In assay [3], `CCCCCCCC/C=C\CCCCCCCC(=O)NCCc1cc(O)c(O)cc1O` gave an IC50 of 70 µM.
Regarding `CCCCCCCC/C=C\CCCCCCCC(=O)NCCc1ccc(O)c(O)c1` [OLEOYL DOPAMINE], the 50% inhibitory concentration (IC50) was found to be 15 µM in assay [3] and 5 µM in assay [4]. The Ki in assay [3] worked out at 3 µM. In assay [5], the Activity result was “Not toxic”.
On to `CCCCCCCC/C=C\CCCCCCCC(=O)NCCc1cc(O)c(O)c(O)c1`, for which, in assay [3], the IC50 was 13 µM and affinity was put at a Ki of 1.7 µM. Moreover, in assay [6], the outcome was inactive. Moreover, the outcome in assay [7] was inactive. The Activity in assay [8] is 46%.
As to `CCCCCCCC/C=C\CCCCCCCC(=O)NCCc1ccc(OC)c(OC)c1`, the outcome in assay [1] and in assay [2] was inactive.

The record behind these values is ChEMBL document CHEMBL1140658, “Inhibitors of anthrax lethal factor” (Bioorg Med Chem Lett, 2007).
